A short description of assay [1]: Compound was evaluated for the potency of sweet taste when sweetness of sucrose is taken as 1 on a weight basis; Not sweet. It counts as functional.
The nature of assay [2]: Compound was evaluated for the potency of sweet taste when sweetness of sucrose is taken as 1 on a weight basis; 2500-3000.
Assay [3] can be described thus: Compound was evaluated for the potency of sweet taste when sweetness of sucrose is taken as 1 on a weight basis; 150-200.
A short description of assay [4]: Compound was evaluated for the potency of sweet taste when sweetness of sucrose is taken as 1 on a weight basis; 15-30.

Drawing on ChEMBL document CHEMBL1122038, “Peptide sweeteners. 5. Side-chain homologues relating zwitterionic and trifluoroacetylated amino acid anilide and dipeptide sweeteners” (J Med Chem, 1982), this text covers Taste for 18 compounds.

Counter-ions that a name gives are not always drawn. Peptide text beside a SMILES is read from it. * marks the point of attachment. Tfa = O=C(C(F)(F)F)*

In turn, `N#Cc1ccc(NC(=O)C(NC(=O)C(F)(F)F)C(=O)O)cc1` (centres undefined) yielded a Taste in assay [1] of 0.

In turn, `COC(=O)C(Cc1ccccc1)NC(=O)C(CCC(=O)O)NC(=O)C(F)(F)F` (centres undefined) displayed a Taste in assay [1] of 0.

Turning to `N#Cc1ccc(NC(=O)C(CCC(=O)O)NC(=O)C(F)(F)F)cc1` (centres undefined), the Taste in assay [2] was determined as 2500; in assay [1] it was 0.

As to `N#Cc1ccc(NC(=O)C[C@@H](NC(=O)C(F)(F)F)C(=O)O)cc1`, the Taste in assay [1] came out at 0.

`COC(=O)[C@H](Cc1ccccc1)NC(=O)C(N)C(=O)O` (some centres undefined): in assay [3], the Taste came out at 150.

Turning to `N#Cc1ccc(NC(=O)CCC(NC(=O)C(F)(F)F)C(=O)O)cc1` (stereo in doubt; 9), the Taste in assay [1] turned out to be 0.

Compound `COC(=O)[C@H](Cc1ccccc1)NC(=O)[C@@H](N)CCC(=O)O` showed a Taste in assay [1] of 0.

The compound `N#Cc1ccc(NC(=O)C(CC(=O)O)NC(=O)C(F)(F)F)cc1` (centres undefined) came in with a Taste in assay [1] of 0.

Turning to `COC(=O)[C@H](Cc1ccccc1)NC(=O)[C@@H](N)CC(=O)O`, the Taste in assay [3] came out at 150.

In assay [4], `N#Cc1ccc(NC(=O)C(N)CC(=O)O)cc1` (centres undefined) registered a Taste of 15.

Compound `N#Cc1ccc(NC(=O)CCC(NC(=O)C(F)(F)F)C(=O)O)cc1` (stereo in doubt; 11) displayed a Taste in assay [1] of 0.

Take `N#Cc1ccc(NC(=O)[C@H](CC(=O)O)NC(=O)C(F)(F)F)cc1`: in assay [2], the Taste was determined as 2500.

In assay [1], `COC(=O)C(Cc1ccccc1)NC(=O)C(NC(=O)C(F)(F)F)C(=O)O` (centres undefined) registered a Taste of 0.

`N#Cc1ccc(NC(=O)C(N)C(=O)O)cc1` (centres undefined) gave a Taste in assay [1] of 0.

In assay [1], `N#Cc1ccc(NC(=O)C(CCCC(=O)O)NC(=O)C(F)(F)F)cc1` (centres undefined) registered a Taste of 0.

In assay [1], `N#Cc1ccc(NC(=O)CC(NC(=O)C(F)(F)F)C(=O)O)cc1` (centres undefined) displayed a Taste of 0.

With `N#Cc1ccc(NC(=O)C(N)CCC(=O)O)cc1` (centres undefined), the Taste in assay [4] was found to be 15.

As for `COC(=O)C(Cc1ccccc1)NC(=O)C(CC(=O)O)NC(=O)C(F)(F)F` (stereo not drawn) (Tfa-Asp-Phe-OMe; configuration not given here), in assay [3], the Taste is 150.
